Assay results: US4431665A, “Acylated laidlomycin derivatives” (priority 1980, dated 1984)
Where two headings read alike, the source gives them in different places.

Tests used:
[1] = tested on: rumen microorganisms (mixed microbial population of rumen contents); test: Enhancement of intraruminal propionic acid production, batch culture fermentation of rumen contents; type: cell-based, bovine (rumen-fistulated); details: for % Propionic Acid: 9 h, 39° C.
Procedure: Enhancement of intraruminal propionic acid production is determined using a batch culture fermentation system. Rumen contents from a rumen-fistulated bovine are mixed with an equal amount of buffer which contains mineral, energy and nitrogen sources required for continued growth and metabolism of the mixed microbial population. Aliquots of this inoculum then are transferred to incubation vessels containing appropriate amounts of sodium laidlomycin (Na L.) (see Example 1A), and L. butyrate (L.C4) (prepared according to the procedure of Example 1A). After 9 hours of incubation at 39° C., concentrations of individual volatile fatty acids in each incubation vessel are determined by gas-liquid chromatography. The net production of each individual volatile fatty acid (acetic [AA], propionic [PA] and butyric [BA]) is calculated as the difference between the concentration after incubation and the concentration before incubation. The molar percentage of propionic acid produced is calculated from the following equation: [formula]
The comparative activities of sodium laidlomycin (Na L.) and the laidlomycin butyrate upon propionic acid and lactic acid production are set forth in Tables 1 and 2 where the concentration is in micrograms per ml (μg/ml).
(§1) The procedure of Example 2 was followed to compare laidlomycin (L.), sodium L. (Na L.), L.-propionate (L.C3), L. butyrate (L.C4), L. isobutyrate (L. isoC4), L. pentanoate (L.C5) and L. hexanoate (L.C6).
(§2) The procedure of Example 2 was followed to compare the activities of L. heptanoate (L. C7), L. octanoate (L. C8), L. decanoate (L. C10) and L. dodecanoate (L. C12) in increasing propionic acid production and inhibiting lactic acid production.
(§3) The procedure of Example 2 was followed to compare the activities of laidlomycin (L.) acetate (L. C2), L. pentanoate (L. C5), L. stearate (L. C18), L. cyclobutylcarboxylate, L. cyclopentylcarboxylate, L. cyclohexylcarboxylate and L. cyclopropylcarboxylate.

[2] = Acute oral toxicity (mortality, LD50) in mice; type: in vivo, mouse (Swiss-Webster); details: mouse, in vivo, male Swiss-Webster mice, 21 days
Procedure: (§4) Five groups of male, Swiss-Webster mice (Simonsen), each mouse weighing about 25 grams, were dosed orally with 0.25 ml of a solution of laidlomycin butyrate in sesame oil. A control group of six mice received only sesame oil. The mice were observed daily for mortality for 21 days. From this information the LD50 as calculated to be more than 200 mg/kg.

[3] = tested on: male, Swiss-Webster mice; test: Acute oral toxicity (mortality, LD50) in mice; type: in vivo, mouse (Swiss-Webster); details: sesame oil, 21 days
Procedure: as §4

[4] = tested on: rumen contents (lactic acid accumulation); test: Inhibition of lactic acid accumulation, second batch culture fermentation of rumen contents with glucose; type: cell-based, bovine (rumen fistulated); details: for activity at 2.5 µg/mL: 2.5 μg/ml; for activity at 10 µg/mL: 10 μg/ml; for activity at 0.62 µg/mL: .62 μg/ml; for Accumulation of Lactic Acid - % of Control: Table 4, 360 min
Procedure: Inhibition of lactic acid accumulation is determined using a second batch culture fermentation system. Rumen contents from a rumen fistulated bovine are mixed with an equal amount of buffer which contains a 150 mM concentration of glucose. Following 6 hours of incubation at 39° C., lactic acid produced in the fermentation is analyzed by a specific enzymatic assay. The concentration of lactic acid in the fermentation broth is quantified by the increase in absorbance of light at […] when nicotinamide adenine dinucleotide is reduced by lactic acid with the aid of lactate dehydrogenase. […]
as §1, §2, §3

[5] = tested on: Gram-positive bacteria; details: in words; J. Antibiotics 1974, 1976; cited from earlier work
[6] = tested on: ruminants; details: in words; U.S. Pat. No. 3,794,732; cited from earlier work
[7] = Table 1, 1.25 μg/ml, 0 μg/ml: 35.4
[8] = Table 1, 2.5 μg/ml, 0 μg/ml: 35.4
[9] = Table 1, 5 μg/ml, 0 μg/ml: 35.4
[10] = Table 1, 10 μg/ml, 0 μg/ml: 35.4
[11] = Table 1, .31 μg/ml, 0 μg/ml: 35.4
[12] = Table 1, .62 μg/ml, 0 μg/ml: 35.4
[13] = Table 3, 1.25 μg/ml, 0 μg/ml: 28.5
[14] = Table 3, 5 μg/ml, 0 μg/ml: 28.5
[15] = Table 3, 20 μg/ml, 0 μg/ml: 28.5
[16] = Table 3, .31 μg/ml, 0 μg/ml: 28.5
[17] = in words, compared with laidlomycin or its sodium salt
[18] = Bos taurus, 6 h, read-out: Accumulation of Lactic Acid - % of Control, Table 4, 1.25 μg/ml, 6 h, 39° C.
[19] = Bos taurus, 6 h, read-out: Accumulation of Lactic Acid - % of Control, Table 4, .31 μg/ml, 6 h, 39° C.
[20] = Bos taurus, 6 h, read-out: Lactic Acid Accumulation (% of Control), Table 2, 1.25 μg/ml, 6 h, 39° C.
[21] = Bos taurus, 6 h, read-out: Lactic Acid Accumulation (% of Control), Table 2, 6 h, 39° C.
[22] = Bos taurus, 6 h, read-out: Lactic Acid Accumulation (% of Control), Table 2, 5 μg/ml, 6 h, 39° C.
[23] = Bos taurus, 6 h, read-out: Lactic Acid Accumulation (% of Control), Table 2, .31 μg/ml, 6 h, 39° C.

Row | Compound | % Propionic Acid [1, 7] | % Propionic Acid [1, 8] | % Propionic Acid [1, 9] | % Propionic Acid [1, 10] | % Propionic Acid [1, 11] | % Propionic Acid [1, 12] | % Propionic Acid [1, 13] | % Propionic Acid [1, 14] | % Propionic Acid [1, 15] | % Propionic Acid [1, 16] | activity at 1.25 µg/mL [4, 18] | activity at 0.31 µg/mL [4, 19] | activity at 1.25 µg/mL [4, 20] | activity at 2.5 µg/mL [4, 21] | activity at 5 µg/mL [4, 22] | activity at 10 µg/mL [4, 21] | activity at 0.31 µg/mL [4, 23] | activity at 0.62 µg/mL [4, 21] | Accumulation of Lactic Acid - % of Control ([4]; 5 μg/ml, 6 h, 39° C.) | Accumulation of Lactic Acid - % of Control ([4]; 20 μg/ml, 6 h, 39° C.) | also measured
1 | CCCC(=O)OCC1(O)OC(C2CC(C)C(C3(C)CCC(C4(C)CCC5(CC(O)C(C)C(C(C)C(OC(=O)CC)C(C)C(=O)O)O5)O4)O3)O2)C(C)CC1C (stereo not shown) [L. C4, monobutyrate of laidlomycin] | 46.1% | 52.2% | 49.3% | 53.9% | 43.6% | 46.4% | 39.9% | 43.7% | 46.9% | 35.5% | 13% | 38% | 8% | 11% | 13% | 13% | 71% | 30% |  |  | enhancement of propionic acid production (molar percentage of propionate) [1, 17]: surprisingly increased potency; LD50 at 504 h [2]: > 200 mg/kg; No. Deaths/No. Mice ([3]; 12.5 mg/kg): 0/6; No. Deaths/No. Mice ([3]; 25 mg/kg): 0/6; No. Deaths/No. Mice ([3]; 50 mg/kg): 0/6; No. Deaths/No. Mice ([3]; 100 mg/kg): 0/6; No. Deaths/No. Mice ([3]; 200 mg/kg): 0/6; activity at 5 µg/mL ([4]; Bos taurus, 6 h, read-out: Accumulation of Lactic Acid - % of Control, Table 4, 5 μg/ml, 6 h, 39° C.): 15%; activity at 20 µg/mL ([4]; Bos taurus, 6 h, read-out: Accumulation of Lactic Acid - % of Control, Table 4, 20 μg/ml, 6 h, 39° C.): 19%; inhibition of lactic acid production/accumulation [4, 17]: surprisingly increased potency
2 | CCC(=O)OC(C(C)C(=O)O)C(C)C1OC2(CCC(C)(C3CCC(C)(C4OC(C5OC(O)(CO)C(C)CC5C)CC4C)O3)O2)CC(O)C1C (stereo not shown) [L., laidlomycin] |  |  |  |  |  |  | 36.0% | 39.8% | 43.2% | 32.1% | 83% | 121% |  |  |  |  |  |  | 20 % of Control | 16 % of Control | growth inhibition of Gram-positive bacteria [5]: inhibits the growth of some Gram-positive bacteria
3 | CCC(=O)OC(C(C)C(=O)O)C(C)C1OC2(CCC(C)(C3CCC(C)(C4OC(C5OC(O)(CO)C(C)CC5C)CC4C)O3)O2)CC(O)C1C (stereo not shown) [Na L., sodium laidlomycin, reference compound] | 41.3% | 43.2% | 44.4% | 45.4% | 40.2% | 40.8% | 34.1% | 34.6% | 36.8% | 32.0% |  |  | 125% | 112% | 93% | 67% | 135% | 132% | 57 % of Control | 40 % of Control | Accumulation of Lactic Acid - % of Control ([4]; 1.25 μg/ml, 6 h, 39° C.): 94 % of Control; Accumulation of Lactic Acid - % of Control ([4]; .31 μg/ml, 6 h, 39° C.): 114 % of Control
4 | monensin |  |  |  |  |  |  |  |  |  |  |  |  |  |  |  |  |  |  |  |  | increasing feed utilization in ruminants [6]: useful in increasing feed utilization in ruminants
